# Laboratory results reported in patent US12319709B2, “Diaryl trehalose compounds and uses thereof” (THE UNIVERSITY OF MONTANA, priority 2018, dated 2025).
# How the values were obtained:
# RAW264.7 cells = test: Cytokine (TNFα) response of mouse macrophage cell line; Table 2 'Murine'; type: cell-based; conditions: NR = no response
# Experimental: Compounds were also tested in a mouse macrophage cell line (FIG. 4B). RAW264.7 cells were subjected to increasing concentrations of the compounds and assessed for production of the cytokine TNFα.
# [1] = tested on: peripheral blood mononuclear cells (PBMCs); test: IL-6 induction in fresh human PBMCs; type: cell-based
# In short: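 Fresh human PBMCs incubated at 37 °C with serially diluted compounds delivered in DMSO into medium. IL-6 in supernatants quantified by ELISA 18 h after treatment.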
# [2] = tested on: peripheral blood mononuclear cells (PBMCs); test: Cytokine analysis of supernatants of stimulated, freshly prepared PBMCs; type: cell-based, human; conditions: compounds solubilized in DMSO
# Experimental: Tumor necrosis factor alpha (TNFα) and IL-6 production in peripheral blood mononuclear cells (PBMCs) was measured after exposure to various concentrations of the DAT compounds synthesized as shown above. Initial studies focused on two different methods of delivery of the DAT compounds to PBMC cultures. In the first delivery method, the indicated derivative compound was dissolved in isopropanol, serially diluted, and then dried to the bottom of a tissue culture plate. In the second delivery method, the indicated derivative compound was dissolved in DMSO and serially diluted into tissue culture media. In each method, PBMCs were added to the compounds and incubated at 37° C. TNFα (FIG. 1A) and IL-6 (FIG. 1B) were measured after 18-24 hours after treatment by ELISA assay.
# Supernatants from the freshly prepared PBMCs stimulated with DAT compounds solubilized in DMSO (Example 5A) were analyzed for the cytokines that help drive Th1 cell or Th17 cell adaptive immune responses; IFNγ, IL-12 p70, IL-6, IL-1β, and IL-23. Minimal amounts of IL-12p70 were detected and IFNγ was undetectable. Therefore, both are not reported.
# Mincle receptor = target: T1, Mincle receptor (Mus musculus, UniProt Q9R0Q8); test: HEK-Blue Mincle mouse reporter cells, NF-κB SEAP production; type: cell-based
# T1 construct: expressed in transfected cells; host or cells: HEK-Blue Mincle reporter cells (HEK293-derived, NF-kB SEAP reporter)
# T1 sequence (Q9R0Q8 1-214): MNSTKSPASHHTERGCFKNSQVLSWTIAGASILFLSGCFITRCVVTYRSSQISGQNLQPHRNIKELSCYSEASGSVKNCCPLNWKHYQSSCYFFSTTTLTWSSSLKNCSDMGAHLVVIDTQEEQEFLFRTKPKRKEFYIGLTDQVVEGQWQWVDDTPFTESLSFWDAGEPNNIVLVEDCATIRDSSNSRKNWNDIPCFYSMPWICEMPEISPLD
# Experimental: Compounds were also tested in the commercial reporter Hek-Blue™ cell lines. Hek-Blue™ cells were treated with increasing concentrations of the indicated compound for 18 to 24 hours. Isolated supernatants were measured for NF-κB secreted embryonic alkaline phosphatase (SEAP) production with QUANTI-Blue™ reagent (FIG. 4A). SEAP production was robust for both the mouse and human reporter lines (FIG. 4A), indicating strong signaling through the Mincle receptor in both human and murine systems.
# Balb/c mice = test: i.m. immunization of Balb/c mice with M72 antigen and liposomal adjuvant; splenocyte restimulation, intracellular cytokine staining; type: in vivo, mouse
structure (smiles),measurement,setting,value
"CC(C)(C)c1cc(C(=O)OCC2OC(OC3OC(COC(=O)c4cc(C(C)(C)C)cc(C(C)(C)C)c4O)C(O)C(O)C3O)C(O)C(O)C2O)c(O)c(C(C)(C)C)c1 (stereo not drawn) [UM1024, 6,6′-bis-(3,5-di-tert-butylsalisate)-α,α-trehalose]",Maximum cytokine response Murine,RAW264.7 cells,3
same,Minimal Effective Concentration Murine,RAW264.7 cells,0.45 µM
same,Maximum cytokine response h-IL-6,"[1]; human IL-6, NR = no response",3.5 OD
same,Minimal Effective Concentration h-IL-6,"[1]; human IL-6, NR = no response",1 µM
same,increased potency (EC50) for induction of cytokines relative to other compounds,[1]; human PBMCs,over 1000 ×
same,TNFα response in PBMCs (in words),[2],higher responding
same,"NF-κB SEAP production, mouse reporter line","Mincle receptor; 18 to 24 hours, QUANTI-Blue",distinct very high peak at low concentration of compound
same,"potency shift in comparison with other compounds, reporter cells","Mincle receptor; HEK-Blue Mincle reporter, compared with PBMC cytokine profiles",did not display a large leftward potency shift
same,IL-2 production compared to controls,Balb/c mice; 10 nmol group,substantially increased
same,TNFα production compared to controls,Balb/c mice; higher doses,increased compared to controls
same,antigen-specific CD4+ and CD8+ IL-17A producing cells (Th17 response),"Balb/c mice; liposomal formulation, M72 restimulated splenocytes, TDB at highest dose",induced high levels of antigen-specific CD4+ and CD8+ IL17A producing cells
same,IL-5 production (Th2 response) in restimulated cells,"Balb/c mice; liposomal formulation, M72 vaccine",seen in restimulated cells
